Source: patent US20160375006A1, “USES OF PARALOG-SELECTIVE INHIBITORS OF GSK3 KINASES” (priority 2012, published 2016)
Where two headings read alike, the source gives them in different places.

Columns and labels:
MELK = target: T1, MELK (Homo sapiens, UniProt Q14680); assay: Carna kinase panel; type: biochemical
T1 construct: purchased Carna Biosciences
Experimental: (§1) This was completed utilizing one of two assays depending on the kinase being examined.
(§2) A solution of IMAP binding reagent (IMAP Screening Express kit; Molecular Devices) (60 μL) was added to each well and incubated for 30 minutes.
(§3) A solution of termination buffer (QuickScout Screening assist MSA; Carna Biosciences) (60 μL) was added to each well. The entire reaction mixture was then applied to a LabChip3000 system (Caliper Life Science) and the product and substrate peptide peaks were separated and quantified.

CDK3/CycE1 = CDK3/CycE1 (Homo sapiens, UniProt Q00526)
Experimental: as §1, §2, §3
(§4) The assay utilized was identical to that of the single point inhibitory activity determination (MSA) but run in dose response. […] A solution of termination buffer (QuickScout Screening assist MSA; Carna Biosciences) (60 μL) was added to each well. The entire reaction mixture was then applied to a LabChip3000 system (Caliper Life Science) and the product and substrate peptide peaks were separated and quantified.

FGFR4(N535K) = FGFR4(N535K) (Homo sapiens, UniProt P22455, N535K)
Experimental: as §1, §2, §3

PLK2 = PLK2 (Homo sapiens, UniProt Q9NYY3)
Sequence of PLK2 (Q9NYY3 whole entry): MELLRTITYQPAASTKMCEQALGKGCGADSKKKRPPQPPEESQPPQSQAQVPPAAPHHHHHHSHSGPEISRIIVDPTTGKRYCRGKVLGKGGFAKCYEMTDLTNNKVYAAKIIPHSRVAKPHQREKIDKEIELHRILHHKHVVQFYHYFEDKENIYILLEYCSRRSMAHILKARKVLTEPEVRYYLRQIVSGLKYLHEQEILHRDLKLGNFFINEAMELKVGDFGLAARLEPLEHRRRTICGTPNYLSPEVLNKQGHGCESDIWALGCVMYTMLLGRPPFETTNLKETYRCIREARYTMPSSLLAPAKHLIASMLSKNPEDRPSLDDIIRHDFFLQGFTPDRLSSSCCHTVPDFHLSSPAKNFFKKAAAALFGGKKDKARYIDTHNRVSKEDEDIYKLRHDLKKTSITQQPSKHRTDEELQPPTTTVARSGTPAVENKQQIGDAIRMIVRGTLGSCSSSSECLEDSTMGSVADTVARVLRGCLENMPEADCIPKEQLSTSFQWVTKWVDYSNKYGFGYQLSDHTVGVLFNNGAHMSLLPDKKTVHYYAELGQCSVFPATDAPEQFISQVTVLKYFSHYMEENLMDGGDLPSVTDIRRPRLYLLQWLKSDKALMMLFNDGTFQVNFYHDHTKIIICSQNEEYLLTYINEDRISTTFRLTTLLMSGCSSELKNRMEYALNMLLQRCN
Experimental: as §1, §2, §3, §4

AXL = AXL (Homo sapiens, UniProt P30530)
Experimental: as §1, §2, §3

BRSK2 = BRSK2 (Homo sapiens, UniProt Q8IWQ3)
Experimental: as §1, §2, §3, §4

ALK(F1174L) = ALK(F1174L) (Homo sapiens, UniProt Q9UM73, F1174L)
Experimental: as §1, §2, §3

FRK = FRK (Homo sapiens, UniProt P42685)
Experimental: as §1, §2, §3, §4

PDGFRα(T674I) = PDGFRα(T674I) (Homo sapiens, UniProt P16234, T674I)
Experimental: as §1, §2, §3, §4

ITK = ITK (Homo sapiens, UniProt Q08881)
Experimental: as §1, §2, §3, §4

MST4 = MST4 (Homo sapiens, UniProt Q9P289)
Experimental: as §1, §2, §3, §4

JAK1 = JAK1 (Homo sapiens, UniProt P23458)
Experimental: as §1, §2, §3, §4

INSR = INSR (Homo sapiens, UniProt P06213)
TXK = TXK (Homo sapiens, UniProt P42681)
Experimental: as §1, §2, §3, §4

FGFR3(K650M) = FGFR3(K650M) (Homo sapiens, UniProt P22607, K650M)
Experimental: as §2, §3, §4

CaMK1α = CaMK1α (Homo sapiens, UniProt Q14012)
Experimental: as §1, §2, §3, §4

NEK4 = NEK4 (Homo sapiens, UniProt P51957)
Experimental: as §1, §2, §3, §4

EPHA7 = EPHA7 (Homo sapiens, UniProt Q15375)
Experimental: as §1, §2, §3, §4

MNK2 = MNK2 (Homo sapiens, UniProt Q9HBH9)
Sequence of MNK2 (Q9HBH9 whole entry): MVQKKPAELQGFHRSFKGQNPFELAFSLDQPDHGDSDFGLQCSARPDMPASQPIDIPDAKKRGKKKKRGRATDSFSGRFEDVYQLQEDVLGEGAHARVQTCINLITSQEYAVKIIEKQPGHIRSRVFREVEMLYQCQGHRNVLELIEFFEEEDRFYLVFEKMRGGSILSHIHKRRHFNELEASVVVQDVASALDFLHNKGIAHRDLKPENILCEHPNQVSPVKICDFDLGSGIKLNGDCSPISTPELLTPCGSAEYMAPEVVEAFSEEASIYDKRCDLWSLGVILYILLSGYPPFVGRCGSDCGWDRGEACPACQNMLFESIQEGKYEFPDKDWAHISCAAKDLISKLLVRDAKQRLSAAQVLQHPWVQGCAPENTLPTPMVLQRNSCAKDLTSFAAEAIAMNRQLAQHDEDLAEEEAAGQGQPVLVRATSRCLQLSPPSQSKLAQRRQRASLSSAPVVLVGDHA
Experimental: as §1, §2, §3

CK2α1/β = CK2α1/β (Homo sapiens, UniProt P68400)
Sequence of CK2α1/β (P68400 whole entry): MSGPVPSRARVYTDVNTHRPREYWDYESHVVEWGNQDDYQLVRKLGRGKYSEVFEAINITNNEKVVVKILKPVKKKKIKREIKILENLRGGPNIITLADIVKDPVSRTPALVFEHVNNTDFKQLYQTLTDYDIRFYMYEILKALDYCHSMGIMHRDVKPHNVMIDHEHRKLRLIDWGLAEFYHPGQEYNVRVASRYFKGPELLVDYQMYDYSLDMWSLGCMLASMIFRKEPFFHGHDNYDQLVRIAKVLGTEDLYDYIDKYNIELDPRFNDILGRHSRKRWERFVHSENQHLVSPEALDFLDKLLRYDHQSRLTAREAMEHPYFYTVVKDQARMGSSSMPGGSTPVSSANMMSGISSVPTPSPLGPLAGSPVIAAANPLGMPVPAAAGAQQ
Sequence of CK2α1/β (P67870 whole entry partner): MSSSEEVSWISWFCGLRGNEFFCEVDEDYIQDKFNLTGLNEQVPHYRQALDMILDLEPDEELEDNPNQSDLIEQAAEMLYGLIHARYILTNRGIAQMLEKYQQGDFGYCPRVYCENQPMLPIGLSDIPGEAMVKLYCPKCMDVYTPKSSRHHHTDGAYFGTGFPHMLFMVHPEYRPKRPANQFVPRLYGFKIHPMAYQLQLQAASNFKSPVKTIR
Experimental: as §1, §2, §3, §4

EEF2K = EEF2K (Homo sapiens, UniProt O00418)
Experimental: as §1, §2, §3

MRCKβ = MRCKβ (Homo sapiens, UniProt Q9Y5S2)
Sequence of MRCKβ (Q9Y5S2 whole entry): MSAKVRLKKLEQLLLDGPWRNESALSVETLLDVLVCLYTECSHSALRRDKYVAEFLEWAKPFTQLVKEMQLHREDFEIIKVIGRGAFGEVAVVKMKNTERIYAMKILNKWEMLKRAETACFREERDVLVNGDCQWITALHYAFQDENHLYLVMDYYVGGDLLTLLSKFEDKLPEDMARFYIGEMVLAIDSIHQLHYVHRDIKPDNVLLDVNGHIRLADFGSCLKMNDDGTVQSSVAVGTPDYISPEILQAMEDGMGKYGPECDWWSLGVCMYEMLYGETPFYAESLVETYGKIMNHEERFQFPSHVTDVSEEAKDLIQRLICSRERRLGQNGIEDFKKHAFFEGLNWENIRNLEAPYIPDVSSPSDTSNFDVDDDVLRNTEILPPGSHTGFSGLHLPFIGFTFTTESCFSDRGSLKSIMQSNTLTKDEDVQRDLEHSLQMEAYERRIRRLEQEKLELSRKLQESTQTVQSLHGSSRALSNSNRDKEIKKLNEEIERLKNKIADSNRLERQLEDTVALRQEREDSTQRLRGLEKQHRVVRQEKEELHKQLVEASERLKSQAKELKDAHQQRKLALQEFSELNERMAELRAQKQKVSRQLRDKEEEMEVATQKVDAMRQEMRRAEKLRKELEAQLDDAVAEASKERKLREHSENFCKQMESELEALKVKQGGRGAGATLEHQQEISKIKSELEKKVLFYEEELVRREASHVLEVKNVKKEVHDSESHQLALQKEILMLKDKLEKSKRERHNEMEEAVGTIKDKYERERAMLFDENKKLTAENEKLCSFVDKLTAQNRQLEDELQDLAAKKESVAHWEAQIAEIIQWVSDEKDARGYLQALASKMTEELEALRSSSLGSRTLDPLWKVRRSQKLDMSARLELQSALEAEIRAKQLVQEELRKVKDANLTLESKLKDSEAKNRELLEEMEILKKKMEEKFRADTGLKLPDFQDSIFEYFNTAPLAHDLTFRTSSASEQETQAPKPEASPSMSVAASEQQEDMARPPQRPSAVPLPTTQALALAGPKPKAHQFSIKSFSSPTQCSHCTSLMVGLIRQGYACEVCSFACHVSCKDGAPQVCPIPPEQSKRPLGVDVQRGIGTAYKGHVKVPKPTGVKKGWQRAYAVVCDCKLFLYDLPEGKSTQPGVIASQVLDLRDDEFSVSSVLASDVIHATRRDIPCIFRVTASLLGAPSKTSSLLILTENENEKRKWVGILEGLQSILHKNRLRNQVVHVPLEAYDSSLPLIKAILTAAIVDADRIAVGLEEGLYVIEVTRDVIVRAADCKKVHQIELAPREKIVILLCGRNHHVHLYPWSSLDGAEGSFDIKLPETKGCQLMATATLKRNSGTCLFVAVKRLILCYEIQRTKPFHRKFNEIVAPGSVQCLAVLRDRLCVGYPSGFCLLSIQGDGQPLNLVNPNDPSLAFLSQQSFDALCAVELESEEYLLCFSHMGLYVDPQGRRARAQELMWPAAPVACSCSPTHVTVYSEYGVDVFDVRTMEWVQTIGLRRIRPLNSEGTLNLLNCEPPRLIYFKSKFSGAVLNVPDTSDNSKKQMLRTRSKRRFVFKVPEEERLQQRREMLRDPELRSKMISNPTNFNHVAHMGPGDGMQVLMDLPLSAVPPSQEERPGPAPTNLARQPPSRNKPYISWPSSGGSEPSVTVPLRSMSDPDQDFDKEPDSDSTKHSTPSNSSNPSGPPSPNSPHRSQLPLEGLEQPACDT
Experimental: as §1, §2, §3, §4

[1] = test system: pGSK3α/β, β-catenin, CRMP2 in SH-SY5Y cells; details: SH-SY5Y cells, 1, 5, 10 and 30 μM, 24 hours
Experimental: The samples were incubated and gently rocked for 1 h before centrifuged at 12 000 g for 10 min. The supernatant total cell lysate was subject to subsequent western blot analysis. […] Membranes were incubated overnight with primary antibodies in a solution of Tris-buffered saline containing Tween 20 (TBST, Sigma) and 5% dry milk. Incubation of secondary antibodies was performed for 1 h at room temperature in a solution of 5% dry milk in TBST.

[2] = test system: audiogenic seizure phenotype; details: Fmr1 KO mice, single dose 30 mg/kg i.p.
[3] = test system: protein synthesis in hippocampal slices; details: Fmr1 knockout mice hippocampal slices, 10 μM
Experimental: 500 um hippocampal slices are recovered in ACSF for 3 hours, followed by incubation in GSK3ai or vehicle for an hour, with Actinomycin D (to block transcription) for the last half hour of drug incubation. Slices are then transferred to new chambers containing ACSF with drug/vehicle and S35 (a radiolabeled Met/Cys) for 30 minutes to measure protein synthesis. Slices are then processed and read in a scintillation counter to determine the rate of protein synthesis.

LIMK1 = target: T2, LIMK1 (Homo sapiens, UniProt P53667); assay: Carna kinase panel; type: biochemical
T2 construct: purchased Carna Biosciences
Experimental: as §1, §2, §3

GSK3α = GSK3α (Homo sapiens, UniProt P49840)
Sequence of GSK3α (P49840 whole entry): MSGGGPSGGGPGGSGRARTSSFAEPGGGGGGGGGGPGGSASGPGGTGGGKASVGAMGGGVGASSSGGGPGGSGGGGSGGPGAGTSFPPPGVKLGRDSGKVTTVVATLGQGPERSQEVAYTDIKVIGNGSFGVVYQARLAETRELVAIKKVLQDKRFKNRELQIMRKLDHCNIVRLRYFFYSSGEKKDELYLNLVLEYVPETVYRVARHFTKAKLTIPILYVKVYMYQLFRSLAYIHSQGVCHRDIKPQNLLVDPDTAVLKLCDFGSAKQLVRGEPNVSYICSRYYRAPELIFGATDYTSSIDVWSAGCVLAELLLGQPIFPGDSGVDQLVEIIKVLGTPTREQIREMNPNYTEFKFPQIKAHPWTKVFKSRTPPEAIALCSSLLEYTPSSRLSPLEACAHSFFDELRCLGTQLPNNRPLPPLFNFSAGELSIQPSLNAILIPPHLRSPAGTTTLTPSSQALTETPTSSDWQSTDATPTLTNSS
Experimental: as §1, §2, §3, §4

PLK4 = PLK4 (Homo sapiens, UniProt O00444)
TTK = TTK (Homo sapiens, UniProt P33981)
KIT(D816E) = KIT(D816E) (Homo sapiens, UniProt P10721, D816E)
LKB1 = LKB1 (Homo sapiens, UniProt Q15831)
MET(M1250T) = MET(M1250T) (Homo sapiens, UniProt P08581, M1250T)
MET(D1228H) = MET(D1228H) (Homo sapiens, UniProt P08581, D1228H)
BMPR1A = BMPR1A (Homo sapiens, UniProt P36894)
WEE1 = WEE1 (Homo sapiens, UniProt P30291)

Sequence of CDK3/CycE1 (Q00526 whole entry): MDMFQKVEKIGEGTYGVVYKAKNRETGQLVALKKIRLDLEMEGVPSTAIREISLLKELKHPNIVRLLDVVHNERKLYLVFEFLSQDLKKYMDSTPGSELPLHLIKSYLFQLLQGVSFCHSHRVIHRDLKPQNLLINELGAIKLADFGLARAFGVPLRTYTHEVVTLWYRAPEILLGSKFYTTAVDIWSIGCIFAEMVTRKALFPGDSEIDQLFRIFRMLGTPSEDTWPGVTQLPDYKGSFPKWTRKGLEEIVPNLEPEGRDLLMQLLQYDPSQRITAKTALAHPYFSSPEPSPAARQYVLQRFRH
Sequence of CDK3/CycE1 (P24864 whole entry partner): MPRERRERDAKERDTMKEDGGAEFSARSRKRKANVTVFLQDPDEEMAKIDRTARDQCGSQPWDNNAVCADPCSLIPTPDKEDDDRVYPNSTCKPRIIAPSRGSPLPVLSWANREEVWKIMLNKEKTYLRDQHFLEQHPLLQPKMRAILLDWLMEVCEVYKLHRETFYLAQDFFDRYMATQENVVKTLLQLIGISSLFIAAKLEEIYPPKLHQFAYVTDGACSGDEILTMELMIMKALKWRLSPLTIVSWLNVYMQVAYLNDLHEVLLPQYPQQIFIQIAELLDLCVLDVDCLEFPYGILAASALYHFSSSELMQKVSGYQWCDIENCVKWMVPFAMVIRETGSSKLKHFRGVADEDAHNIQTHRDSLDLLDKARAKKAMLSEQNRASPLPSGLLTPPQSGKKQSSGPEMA

## CC[C@@]1(c2ccccc2)C2=C(CC(C)(C)CC2=O)Nc2n[nH]cc21 [BRD0705]
MELK
  % Inhibition at 10 μM: −5.6%
CDK3/CycE1; CDK3/CycE1
  % Inhibition at 10 μM: 52.8%
CDK3/CycE1; read-out: IC50 CDK3/CycE1
  IC50: 9.74 µM
FGFR4(N535K)
  % Inhibition at 10 μM: 22.1%
PLK2
  % Inhibition at 10 μM: 4.0%
AXL
  % Inhibition at 10 μM: 3.7%
BRSK2
  % Inhibition at 10 μM: 1.8%
ALK(F1174L)
  % Inhibition at 10 μM: 1.7%
FRK
  % Inhibition at 10 μM: 0.9%
PDGFRα(T674I)
  % Inhibition at 10 μM: 0.5%
ITK
  % Inhibition at 10 μM: 0.3%
MST4
  % Inhibition at 10 μM: −0.4%
JAK1
  % Inhibition at 10 μM: −1.3%
INSR
  % Inhibition at 10 μM: −1.4%
TXK
  % Inhibition at 10 μM: −1.7%
FGFR3(K650M)
  % Inhibition at 10 μM: −2.7%
CaMK1α
  % Inhibition at 10 μM: −4.7%
NEK4
  % Inhibition at 10 μM: −5.1%
EPHA7
  % Inhibition at 10 μM: −5.3%
MNK2
  % Inhibition at 10 μM: −5.9%
CK2α1/β
  % Inhibition at 10 μM: −6.0%
EEF2K
  % Inhibition at 10 μM: −6.4%
MRCKβ
  % Inhibition at 10 μM: −9.1%
[1]
  pGSK3αY279 level (Western blot): dose dependent decrease
  pGSK3βY216 and β-catenin levels (Western blot): without effecting
[2]
  Audiogenic seizure phenotype: reduces audiogenic seizures
[3]
  Excess protein synthesis: correction of excess protein synthesis

## CC(C)(C)Cc1[nH]nc2c1[C@](C)(c1ccccc1)C1=C(CC(C)(C)CC1=O)N2 [BRD3731]
MELK; 10 μM
  % Inhibition 10 μM: 39.2%
LIMK1
  % Inhibition 10 μM: 7.5%
GSK3α
  % Inhibition 10 μM: 96.8%
  Fold Selectivity: 7.8 fold
  IC50: 211 nM
CDK3/CycE1; CDK3/CycE1
  IC50: > 10 µM
CDK3/CycE1; CDK3/CycE1, 10 μM
  % Inhibition 10 μM: 29.2%
CDK3/CycE1; IC50 CDK3/CycE1 / IC50 GSK3β
  Fold Selectivity: >370 fold
PLK2; 10 μM
  % Inhibition 10 μM: 8.5%
AXL; 10 μM
  % Inhibition 10 μM: 3.8%
BRSK2; 10 μM
  % Inhibition 10 μM: −2.9%
ALK(F1174L); 10 μM
  % Inhibition 10 μM: 0.2%
FRK; 10 μM
  % Inhibition 10 μM: 3.2%
PDGFRα(T674I); 10 μM
  % Inhibition 10 μM: 3.1%
ITK; 10 μM
  % Inhibition 10 μM: 2.8%
MST4; 10 μM
  % Inhibition 10 μM: 6.4%
JAK1; 10 μM
  % Inhibition 10 μM: 3.7%
INSR; 10 μM
  % Inhibition 10 μM: −2.8%
TXK; 10 μM
  % Inhibition 10 μM: 1.3%
FGFR3(K650M); 10 μM
  % Inhibition 10 μM: 0.8%
CaMK1α; 10 μM
  % Inhibition 10 μM: 4.7%
NEK4; 10 μM
  % Inhibition 10 μM: −4.8%
EPHA7; 10 μM
  % Inhibition 10 μM: −3.0%
MNK2; 10 μM
  % Inhibition 10 μM: −5.6%
CK2α1/β; 10 μM
  % Inhibition 10 μM: −2.1%
EEF2K; 10 μM
  % Inhibition 10 μM: 3.9%
MRCKβ; 10 μM
  % Inhibition 10 μM: −0.7%
PLK4
  % Inhibition 10 μM: 14.3%
TTK
  % Inhibition 10 μM: 5.4%
KIT(D816E)
  % Inhibition 10 μM: 3.9%
LKB1
  % Inhibition 10 μM: 3.4%
MET(M1250T)
  % Inhibition 10 μM: 0.8%
MET(D1228H)
  % Inhibition 10 μM: 0.0%
BMPR1A
  % Inhibition 10 μM: −4.4%
WEE1
  % Inhibition 10 μM: −9.1%
